Earlier results, collected in patent US20060240399A1, “Long-term shelf preservation of cells and multicellular specimens by vitrification” (priority 1999, published 2006).

System: Drosophila melanogaster embryos
Settings: co-solute added to vitrification solution

SMILES | effect on ethylene glycol permeation inside embryos
OC[C@@H](O)[C@@H](O)[C@H](O)[C@@H](O)CO [sorbitol] | significantly diminished
NCC(=O)O [glycine] | significantly diminished
N[C@@H](CCC(=O)O)C(=O)O [glutamic acid] | significantly diminished
